Test results from PubChem BioAssay AID1602 (NINDS Approved Drug Screening Program, 2009).
Records with an inconclusive call do not appear. Peptide text beside a SMILES is read from it.

Each molecule was assayed on mutant SOD1 toxicity cell model, protection read-out (assay: attenuators of mutant SOD1 toxicity, cell-based (AID 1602)).
Molecule `O=C1NCC2(CCN(CCc3ccccc3)CC2)O1` has an EC50 of 50 µM.
With `NC[C@@H]1O[C@H](O[C@@H]2[C@@H](CO)OC(O[C@@H]3[C@@H](O)[C@H](N)C[C@H](N)[C@H]3OC3O[C@H](CN)[C@@H](O)[C@H](O)[C@H]3N)[C@@H]2O)[C@H](N)[C@@H](O)[C@@H]1O` (some centres undefined) the EC50 was 50 µM.
Work on `COc1c2occc2c(OC)c2c(=O)cc(C)oc12` yielded an EC50 of 75 µM.
`C[C@H](CS)C(=O)N1CCC[C@H]1C(=O)O` showed an EC50 of 75 µM.
`CO/N=C(\C(=O)NC1C(=O)N2C(C(=O)O)=C(CSc3nc(=O)c(O)nn3C)CS[C@H]12)c1csc(N)n1` (some centres undefined) showed an EC50 of 75 µM.
With `CC(C(=O)O)c1cccc(C(=O)c2ccccc2)c1` (centres undefined) the EC50 was 75 µM.
With `CCn1cc(C(=O)O)c(=O)c2cc(F)c(N3CCNCC3)cc21` the EC50 was 75 µM.
For `Cc1ccc(/C(=C\CN2CCCC2)c2ccccn2)cc1`, the EC50 was 50 µM.
Molecule `CC(=O)N[C@@H](CS)C(=O)O` has an EC50 of 50 µM.
Molecule `Nc1ccc(S(N)(=O)=O)cc1` has an EC50 of 50 µM.
`CC(C)CC1NC(=O)CNC1=O` (centres undefined) gave an EC50 of 50 µM.
Molecule `CC(CCc1ccccc1)NCC(O)c1ccc(O)c(C(N)=O)c1` (centres undefined) has an EC50 of 50 µM.
Molecule `CN(C)CCOC(=O)C(c1ccccc1)C1(O)CCCC1` (centres undefined) has an EC50 of 50 µM.
Work on `O=C(O)c1ccccc1OP(=O)(O)O` yielded an EC50 of 75 µM.
`CC(COc1ccccc1)NC(C)[C@H](O)c1ccc(O)cc1` (some centres undefined) showed an EC50 of 50 µM.
For `CC[N+]1(C)CCCC(OC(=O)C(O)(c2ccccc2)c2ccccc2)C1` (centres undefined), the EC50 was 50 µM.
Work on `Cn1nnnc1SCC1=C(C(=O)O)N2C(=O)C(NC(=O)C(OC=O)c3ccccc3)C2SC1` (centres undefined) yielded an EC50 of 50 µM.
With `CC(=O)OCC1=C(C(=O)O)N2C(=O)[C@@H](NC(=O)CSc3ccncc3)[C@H]2SC1` the EC50 was 50 µM.
For `COC(=O)C1[C@H]2C[C@H]3c4[nH]c5ccccc5c4CCN3C[C@@H]2CC[C@@H]1O` (some centres undefined), the EC50 was 50 µM.
`CNCCc1ccccn1` gave an EC50 of 50 µM.
With `Cc1ccc(C(=O)C(C)CN2CCCCC2)cc1` (centres undefined) the EC50 was 50 µM.
In the case of `c1ccc2c(CC3=NCCN3)cccc2c1`, the EC50 is reported as 50 µM.
`NC(N)=O` showed an EC50 of 75 µM.
`CCN1C[C@@]2(COC)C3[C@@H](OC)[C@H]4[C@@H]1[C@]3(C(OC)C[C@H]2O)C1C[C@@]2(O)[C@H](OC(=O)c3ccccc3)C1[C@]4(OC(C)=O)[C@@H](O)[C@@H]2OC` (some centres undefined) gave an EC50 of 50 µM.
Molecule `CCN1CCN(C(=O)NC(C(=O)NC2C(=O)N3C(C(=O)O)=C(CSc4nnnn4C)CSC23)c2ccc(O)cc2)C(=O)C1=O` (centres undefined) has an EC50 of 50 µM.
`NCCCC(=O)O` was tested, and the EC50 was 50 µM.
With `Nc1ccc(S(=O)(=O)Nc2nccs2)cc1` the EC50 was 50 µM.
In the case of `CC(=O)Nc1cc([As](=O)(O)O)ccc1O`, the EC50 is reported as 50 µM.
For `NCCCCC(N)C(=O)NC(Cc1ccc(O)cc1)C(=O)NC(CCCCN)C(=O)O` (stereo not drawn) (H-Lys-Tyr-Lys-OH; configuration not given here), the EC50 was 75 µM.
`NC(N)=NC(N)=Nc1ccccc1` showed an EC50 of 50 µM.
`CO/N=C(/C(=O)NC1C(=O)N2C(C(=O)O)=C(COC(N)=O)CSC12)c1ccco1` (centres undefined) gave an EC50 of 50 µM.
Work on `CN[C@H](CC(=O)O)C(=O)O` yielded an EC50 of 50 µM.
`C[C@H](CCC(=O)O)[C@H]1CCC2C3C(=O)CC4CC(=O)CC[C@]4(C)C3CC(=O)[C@@]21C` (some centres undefined) showed an EC50 of 50 µM.
`CN1C2CCC1CC(OC(=O)C(CO)c1ccccc1)C2` (centres undefined) was tested, and the EC50 was 50 µM.
